From article PMC6464118 (European journal of medicinal chemistry, 2019)

test system: bevirimat-resistant HIV viruses NL4-3-V370A; assay: Activity against bevirimat-resistant HIV virus NL4-3-V370A; assay type: cell-based; settings: not given

| Compound | activity against bevirimat-resistant HIV viruses NL4-3-V370A |
| --- | --- |
| CC(=O)O[C@H]1[C@@H](OC(C)=O)[C@@]2(C)[C@@H]3CC[C@H]4C(C)(C)[C@@H](OC(=O)CC(C)(C)C(=O)O)CC[C@@]45C[C@@]35CC[C@@]23CO[C@@]2(C(C)(C)O)CC[C@](C)(O2)[C@@H]13 [Compound 13g, (20S, 24S)-15β,16β-Diacetoxy-18,24;20,24-diepoxy-9,19-cyclolanostane-3β, 25-diol 3-O-3′,3′-dimethylsuccinate] | no significant effects |

test system: HIV-1 NL4-3 Nanoluc-sec virus; assay: not given; assay type: cell-based; settings: CC50 (MT4) / EC50 (NL4-3)

| Compound | TI: CC50/EC50 |
| --- | --- |
| CC(=O)O[C@H]1[C@@H](O)[C@@]2(C)[C@@H]3CC[C@H]4C(C)(C)[C@@H](O[C@@H]5OC[C@@H](O)[C@H](O)[C@H]5O)CC[C@@]45C[C@@]35CC[C@@]23CO[C@@]2(C(C)(C)O)CC[C@](C)(O2)[C@@H]13 [Compound 2, beesioside K] | > 8.6 |
| CC(=O)O[C@H]1[C@@H](OC(C)=O)[C@@]2(C)[C@@H]3CC[C@H]4C(C)(C)[C@@H](OC(=O)CCC(C)(C)C(=O)O)CC[C@@]45C[C@@]35CC[C@@]23CO[C@@]2(C(C)(C)O)CC[C@](C)(O2)[C@@H]13 [Compound 13j, (20S, 24S)-15β,16β-Diacetoxy-18,24;20,24-diepoxy-9,19-cyclolanostane-3β, 25-diol 3-O-4',4'-dimethylglutarate] | > 104 |
| CC(=O)O[C@H]1[C@@H](OC(C)=O)[C@@]2(C)[C@@H]3CC[C@H]4C(C)(C)[C@@H](OC(=O)CC5(CC(=O)O)CCCC5)CC[C@@]45C[C@@]35CC[C@@]23CO[C@@]2(C(C)(C)O)CC[C@](C)(O2)[C@@H]13 [Compound 13l, (20S,24S)-15β,16β-Diacetoxy-18,24;20,24-diepoxy-9,19-cyclolanostane-3β,25-diol 3-O-3′,3′-tetramethyleneglutarate] | > 12.6 |
| CC(=O)O[C@H]1[C@@H](OC(C)=O)[C@@]2(C)[C@@H]3CC[C@H]4C(C)(C)[C@@H](OC(=O)COCC(=O)O)CC[C@@]45C[C@@]35CC[C@@]23CO[C@@]2(C(C)(C)O)CC[C@](C)(O2)[C@@H]13 [Compound 13m, (20S,24S)-15β, 16β-Diacetoxy-18,24;20,24-diepoxy-9,19-cyclolanostane-3β,25-diol 3-O-diglycolate] | > 41.7 |
| CC(=O)O[C@H]1[C@@H](OC(C)=O)[C@@]2(C)[C@@H]3CC[C@H]4C(C)(C)[C@@H](OC(=O)CC(C)C(=O)O)CC[C@@]45C[C@@]35CC[C@@]23CO[C@@]2(C(C)(C)O)CC[C@](C)(O2)[C@@H]13 (stereo partly drawn) [Compound 13f, (RS-3′-20S, 24S)-15β,16β-Diacetoxy-18,24;20,24-diepoxy-9,19-cyclolanostane-3β, 25-diol 3-O-3′-methylsuccinate] | > 18.0 |
| CC(=O)O[C@H]1[C@@H](OC(C)=O)[C@@]2(C)[C@@H]3CC[C@H]4C(C)(C)[C@@H](OC(C)=O)CC[C@@]45C[C@@]35CC[C@@]23CO[C@@]2(C(C)(C)O)CC[C@](C)(O2)[C@@H]13 [Compound 13a, (20S, 24S)-15β, 16β-Diacetoxy-18,24;20,24-diepoxy-9,19-cyclolanostane-25-hydroxy-3β-yl acetate] | > 16.4 |
| CC(=O)O[C@H]1[C@H](O)[C@H]([C@]2(C)CC[C@@H](C(C)(C)O)O2)[C@@]2(C)CC[C@@]34C[C@@]35CC[C@H](O[C@@H]3OC[C@@H](O)[C@H](O)[C@H]3O)C(C)(C)[C@@H]5CC[C@H]4[C@]12C [Compound 4, beesioside M] | > 8.2 |
| CC1(C)[C@@H](O[C@@H]2OC[C@@H](O)[C@H](O)[C@H]2O)CC[C@]23C[C@]24CC[C@]25CO[C@@]6(C(C)(C)O)CC[C@](C)(O6)[C@H]2[C@@H](O)[C@@H](O)[C@@]5(C)[C@@H]4CC[C@@H]13 [Compound 1a, (20S,24S)-18,24;20,24-Diepoxy-9,19-cyclolanostane-3β, 15β, 16β,25-tetraol 3-O-β-D-xylopyrano-side] | > 5.2 |
| CC(=O)O[C@H]1[C@@H](OC(C)=O)[C@@]2(C)[C@@H]3CC[C@H]4C(C)(C)[C@@H](OC(=O)CCC(=O)O)CC[C@@]45C[C@@]35CC[C@@]23CO[C@@]2(C(C)(C)O)CC[C@](C)(O2)[C@@H]13 [Compound 13e, (20S,24S)-15β,16β-Diacetoxy-18,24;20,24-diepoxy-9,19-cyclolanostane-3β,25-diol 3-O-succinate] | > 5.2 |
| CC(=O)O[C@H]1[C@@H](OC(C)=O)[C@@]2(C)[C@@H]3CC[C@H]4C(C)(C)[C@@H](O[C@@H]5OC[C@@H](O)[C@H](O)[C@H]5O)CC[C@@]45C[C@@]35CC[C@@]23CO[C@@]2(C(C)(C)O)CC[C@](C)(O2)[C@@H]13 [Compound 1, beesioside I] | > 17.2 |

same assay, conditions: HIV-1 NL4-3 replication in MT4 cells

| Compound | anti-HIV activity in words |
| --- | --- |
| CC1(C)[C@@H](O)CC[C@]23C[C@]24CC[C@]25CO[C@@]6(C(C)(C)O)CC[C@](C)(O6)[C@H]2[C@@H](O)[C@@H](O)[C@@]5(C)[C@@H]4CC[C@@H]13 [Compound 13d, (20S, 24S)-18,24;20,24-Diepoxy-9,19-cyclolanostane-3β, 15β, 16β, 25-tetraol] | inactive |
| CC(=O)O[C@H]1[C@@H]2O[C@@]3(C(C)(C)O)CC[C@](C)(O3)[C@@H]2[C@@]2(CO)CC[C@@]34C[C@@]35CC[C@H](O[C@@H]3OC[C@@H](O)[C@H](O)[C@H]3O)C(C)(C)[C@@H]5CC[C@H]4[C@]12C [Compound 9, (20S,24S)-15α-acetoxy-16β,24;20,24-diepoxy-3β-(β-D-xylopyranosyloxy)-9,19-cyclolanostane-18,25-diol] | inactive |
| CC(C)(O)[C@@H]1CC[C@@](C)([C@H]2[C@@H](O)[C@H](O)[C@@]3(C)[C@@H]4[C@@H](O)C[C@H]5C(C)(C)[C@@H](O[C@@H]6OC[C@@H](O)[C@H](O)[C@H]6O)CC[C@@]56C[C@@]46CC[C@]23C)O1 [Compound 5, soulieoside N] | inactive |
| CC1(C)[C@@H](O[C@@H]2OC[C@@H](O)[C@H](O)[C@H]2O)CC[C@]23C[C@]24CC[C@]25CO[C@@]6(C(C)(C)O)CC[C@](C)(O6)[C@H]2[C@@H](O)[C@@H](O)[C@@]5(C)[C@@H]4CC[C@@H]13 [Compound 1a, (20S,24S)-18,24;20,24-Diepoxy-9,19-cyclolanostane-3β, 15β, 16β,25-tetraol 3-O-β-D-xylopyrano-side] | less potent |
| CC(=O)O[C@H]1[C@H](O)[C@@]2(C)[C@@H]3CC[C@H]4C(C)(C)[C@@H](O[C@@H]5OC[C@@H](O)[C@H](O)[C@H]5O)CC[C@@]45C[C@@]35CC[C@@]23CO[C@@](C)(CCC(=O)C(C)(C)O)[C@@H]13 [Compound 11, soulieoside O] | inactive |
| CC(=O)O[C@H]1[C@@H](OC(C)=O)[C@@]2(C)[C@@H]3CC[C@H]4C(C)(C)[C@@H](O[C@@H]5OC[C@@H](O)[C@H](O)[C@H]5O)CC[C@@]45C[C@@]35CC[C@@]23CO[C@@](C)(CCC(=O)C(C)(C)O)[C@@H]13 [Compound 12, soulieoside P] | inactive |
| CC(=O)O[C@H]1[C@@H](OC(C)=O)[C@@]2(C)[C@@H]3CC[C@H]4C(C)(C)[C@@H](O)CC[C@@]45C[C@@]35CC[C@@]23CO[C@@]2(C(C)(C)O)CC[C@](C)(O2)[C@@H]13 [Compound 13, (20S,24S)-15β, 16β-Diacetoxy-18,24;20,24-diepoxy-9,19-cyclolanostane-3β,25-diol] | inactive |

same assay, conditions: relative to compound 1

| Compound | fold more potent than 1 (anti-HIV activity) |
| --- | --- |
| CC(=O)O[C@H]1[C@@H](OC(C)=O)[C@@]2(C)[C@@H]3CC[C@H]4C(C)(C)[C@@H](OC(=O)CC(C)(C)C(=O)O)CC[C@@]45C[C@@]35CC[C@@]23CO[C@@]2(C(C)(C)O)CC[C@](C)(O2)[C@@H]13 [Compound 13g, (20S, 24S)-15β,16β-Diacetoxy-18,24;20,24-diepoxy-9,19-cyclolanostane-3β, 25-diol 3-O-3′,3′-dimethylsuccinate] | approximately 100 fold |
